Assay results: ChEMBL document CHEMBL1133234, “Synthesis and biological activity of 4'-methoxy derivatives of abscisic acid” (2000)
Activity calls are given as the source filed them. The rule behind the calls is not given here.

What was measured:
Format in all cases: functional
[1] = tested on: Lepidium sativum; test: Compound was tested for inhibition of cress germination at 1 uM
[2] = tested on: Hordeum vulgare subsp. vulgare; test: Compound was tested for inhibition of GA3-induced alpha-amylase induction and induction of the accumulation of dehydrin in unstressed barley seeds; Active
[3] = tested on: Lepidium sativum; test: Compound was tested for inhibition of cress germination at 100 uM
[4] = tested on: Hordeum vulgare subsp. vulgare; test: Compound was tested for inhibition of GA-inducible alpha-amylase induction in barley aleurone protoplasts at 100 uM
[5] = tested on: Hordeum vulgare subsp. vulgare; test: Compound was tested for inhibition of GA-inducible alpha-amylase induction in barley aleurone protoplasts at 0.1 uM
[6] = tested on: Hordeum vulgare subsp. vulgare; test: Compound was tested for inhibition of GA-inducible alpha-amylase induction in barley aleurone protoplasts at 1 uM
[7] = tested on: Lepidium sativum; test: Compound was tested for inhibition of cress germination at 10 uM
[8] = tested on: Hordeum vulgare subsp. vulgare; test: Compound was tested for inhibition of GA-inducible alpha-amylase induction in barley aleurone protoplasts at 10 uM
[9] = tested on: Lepidium sativum; test: Compound was tested for inhibition of cress germination at 0.1 uM
[10] = tested on: Hordeum vulgare subsp. vulgare; test: Compound was tested for inhibition of GA3-induced alpha-amylase induction and induction of the accumulation of dehydrin in unstressed barley seeds at 10 uM; Active

Compound	inhibition at 1 µM [1]	Activity [2]	inhibition at 100 µM [3]	inhibition [4]	inhibition [5]	inhibition [6]	inhibition at 10 µM [7]	inhibition [8]	inhibition at 0.1 µM [9]	Activity [10]
CO[C@@H]1C=C(C)[C@](O)(/C=C/C(C)=C\C(=O)O)C(C)(C)C1	~60%	Active	~100%	100%	60%	90%	~95%	100%	~40%	
CO[C@H]1C=C(C)[C@](O)(/C=C/C(C)=C\C(=O)O)C(C)(C)C1	~40%	Active	~100%	100%	20%	50%	~95%	90%	~20%	
CC1=CC(=O)CC(C)(C)[C@@]1(O)/C=C/C(C)=C\C(=O)O (racemic) [(+)-ABSCISIC ACID]	~80%		~100%	100%	50%	100%	~100%	100%	~60%	Active
